We go through eight molecules from patent US20260242738A1, “ALK5 INHIBITORS FOR EFFICIENT DERIVATION OF MESENCHYMAL STEM CELLS FROM EMBRYONIC STEM CELLS” (SCRIPPS HEALTH, priority 2022, published 2026).

One test concerns hiPSC. The conditions noted are these: CHIR99021 and TTNPB used together; cited from earlier work.
A further test has as its system pluripotent stem cells. The conditions noted are these: LLY-507 and AZD5153 combined, monolayer on Matrigel-coated plates; cited from earlier work.
For test [1], the system named is ex vivo human meniscus tissue. Kind of test: ES-MSC on growth factor conjugated collagen scaffolds implanted into ex vivo human meniscus defects. Type of test: cell-based. The conditions noted are these: growth factor conjugated scaffold, 2 weeks in vitro, 5 weeks in ex vivo meniscus defect; ES-MSC from SB525334. Here is the method:
In a similar experiment, meniscus cartilage-like tissues produced by seeding ES-MSC derived from ALK-5 inhibitor SB525334 upon blow spun collagen scaffolds were implanted into ex vivo human meniscus defects. ES-MSC were seeded upon a glutaraldehyde crosslinked pneumatospun collagen type I scaffold (3.5×1 mm disks) that was conjugated with growth factors (TGFb1, TGFb3 or PDGFbb) or unconjugated (control). After 2 weeks in differentiation medium in vitro, the disks were implanted into 3.5 mm defects formed in ex vivo human meniscus tissue and cultured for 5 weeks.

For another test, the system named is HADC 100 ES-MSC. In words: Pellet culture chondrogenesis, histology and immunohistochemistry. In kind it is cell-based, human. The following applies: HADC 100 ES-MSC, 3 weeks, Safranin-O, collagen type I and II. As to the method:
Monolayer-expanded ES-MSC (passage 2-5) were detached using Accutase® and 0.5×10^6 cells in 0.5 ml of chondrogenic medium were centrifuged at 900 rpm (~770 G) for 5 minutes to form high-density pellets. At least 5-6 pellets, for each ES-MSC condition, were cultured in serum-free chondrogenic medium consisting of Dulbecco's Modified Eagle Medium (Mediatech Inc., Manassas, VA), 1×ITS supplement (Sigma-Aldrich, St. Louis, MO), 100 nM Dexamethasone (Sigma), 1.25 mg/ml human serum albumin (Bayer, Leverkusen, Germany), 100 μM ascorbic acid 2-phosphate (Sigma), 1% penicillin/streptomycin/gentamycin (PSG, Gibco, Carlsbad, CA), and 10 ng/ml TGFβ3 (PeproTech, Rocky Hill, NJ). Pellets for ex vivo implantation were cultured for 3 days before implantation; pellets for histologic or gene expression analysis were maintained in culture for 3 weeks with media changes every 3 to 4 days.
Cell pellets and explants were fixed in Z-Fix (3.7% formaldehyde, Anatech Ltd., Battle Creek, MI), processed for embedding in paraffin, and cut into 4 μm-thick sections. Sections were stained with Safranin-O and Fast Green to visualize glycosaminoglycan distribution in the tissues. Alzarin Red S staining was used to detect the presence of mineralized matrix.
For assessment of collagen types I and II, sections were pretreated with pepsin (Digest-All 3, Thermo Fisher Scientific) for 9 minutes at 37° C. in a humid chamber before incubation at 4° C. for 12 to 16 hours with the following primary antibodies: rabbit anti-human collagen type I antibody (Ab 34710, Abcam, Cambridge, MA) 1 μg/ml; or mouse anti-human collagen type II (II-II6B3, Hybridoma Bank, University of Iowa) 2 μg/ml. For color development, the ImmPRESS secondary DAB (brown) or AP (red) kits (Vector Laboratories, Burlingame, CA) was used. Isotype controls were used to monitor non-specific staining.

In test [2] the test system is ex vivo osteoarthritic cartilage explants. In words: Ex vivo human osteoarthritic cartilage defect repair with fibrin-ECM constructs or pellets. The following applies: implanted as hydrogel or pellets, 3 weeks, serum-free chondrogenic medium with TGFβ3 10 ng/ml. Type of test: cell-based. Here is the method:
Monolayer cultured ES-MSC were suspended in a hydrogel wafer composed of collagen II (Innovative Research Inc. Novi, MI), hyaluronate (Supartz FX sodium hyaluronate, Seikagaku Corp. Tokyo, Japan), chondroitin sulfate (Sigma-Aldrich) and fibrin (Baxter Healthcare, Deerfield, IL) at a density of 20×10^6 cells per ml. The fibrinogen and thrombin components were prepared separately. To each fibrinogen component, 2 mg/ml sodium hyaluronate, 2 mg/ml chondroitin sulfate and 6 mg/ml collagen II was added (2× concentration of final). Cells were added to the thrombin component at a density of 40×10^6 cells per ml. Thrombin and fibrinogen components in individual syringes were attached to a Baxter DUO mixing syringe and extruded to form the coagulated constructs. The constructs were either directly implanted into ex vivo cartilage tissue or coagulated in 6 well tissue culture plates for 4 to 8 minutes before 4-6 ml of chondrogenic medium was added. To prevent shrinkage of the constructs during culture, the gels were held on AdminPatch microneedle arrays (AdminMed, Sunnyvale, CA) for the duration of their culture.
Osteochondral tissues were obtained from patients ranging between 60 to 70 years of age undergoing total knee arthroplasty within 4-6 hours of surgery (approved by Scripps Institutional Review Board) as previous described. Cartilage disks (6 mm in diameter and ~2-3 mm thick) were harvested from the osteochondral specimens using a sterile dermal punch. The cartilage tissue was cultured in medium consisting of DMEM (Mediatech Inc., Manassas, VA) supplemented with 10% calf serum (Omega Scientific Inc., Tarzana, CA) and 1% Penicillin-Streptomycin-Gentamycin (Life Technologies, Carlsbad, CA). Cartilage disks were maintained in 6-well plates (2-4 per well) in 8 ml medium for 72 hours before creation of the surgical defect. A flame-sterilized stainless-steel burr was used create defects approximately 2×2 mm wide and 0.5 to 1 mm deep. These defects were filled with pellets or hydrogel constructs trimmed to size using 2 mm dermal biopsy punches. […]

As for `Cc1c[nH]c(-c2cnc(NCCNc3ccc(C#N)cn3)nc2-c2ccc(Cl)cc2Cl)n1` [CHIR99021], in the test with hiPSC, the “collagen type II immunocytochemical staining of chondroprogenitors” value was “abundant collagen type II immunocytochemical staining”.
As for `COc1nnc2ccc(N3CCC(c4ccc(OCCN5CCN(C)C(=O)[C@H]5C)cc4)CC3)nn12` [AZD5153], in the test with pluripotent stem cells, the “induction of MSC phenotype” value was “successfully induced MSC phenotype”.
Turning to “TGFβ1: growth factor conjugated to pneumatospun collagen type I scaffold”, the “collagen type of neo-meniscus like ECM” value in test [1] was “higher in collagen type II”.
`O=C(NC1CCOCC1)c1ccc(-c2cc(-c3c[nH]nc3-c3ccccn3)ccn2)cc1` [GW788388]: in the test with HADC 100 ES-MSC, the “cartilage-like tissue formation in high density pellets” value was “also produced cartilage-like tissue”. Further, the “cartilaginous neo-tissue formation in ex vivo osteoarthritic explants” value in test [2] is on record as “formed equally well”.
`Cc1cn(CCN2CCN(c3ccccc3-c3cc(C#N)cc(C(=O)NCCCN4CCCC4)c3)CC2)c2ccccc12` [LLY-507]: the “induction of MSC phenotype” value in the test on pluripotent stem cells is “successfully induced MSC phenotype”.
On to `C/C(=C\c1ccc(C(=O)O)cc1)c1ccc2c(c1)C(C)(C)CCC2(C)C` [TTNPB], for which the “collagen type II immunocytochemical staining of chondroprogenitors” value with hiPSC is given as “abundant collagen type II immunocytochemical staining”.

B1: PDGFbb: growth factor conjugated to pneumatospun collagen type I scaffold (protein, UniProt P01127 82-190, looked up)
Platelet-derived growth …: SLGSLTIAEPAMIAECKTRTEVFEISRRLIDRTNANFLVWPPCVEVQRCSGCCNNRNVQCRPTQVQLRPVQVRKIEIVRKKPIFKKATVTLEDHLACKCETVAAARPVT
modifications: BB homodimer; conjugated to collagen scaffold
B1: the “collagen type of neo-meniscus like ECM” value in test [1] is “both collagen type I and II rich ECM”.

B2: TGFb3: growth factor conjugated to pneumatospun collagen type I scaffold (protein, UniProt P10600 301-412, looked up)
Transforming growth factor …: ALDTNYCFRNLEENCCVRPLYIDFRQDLGWKWVHEPKGYYANFCSGPCPYLRSADTTHSTVLGLYNTLNPEASASPCCVPQDLEPLTILYYVGRTPKVEQLSNMVVKSCKCS
modifications: conjugated to collagen type I scaffold
As for B2, the “collagen type of neo-meniscus like ECM” value in test [1] is given as “higher in collagen type II”.
